The text below walks through data of ChEMBL document CHEMBL1158123, “Rubrisandrins A and B, lignans and related anti-HIV compounds from Schisandra rubriflora” (J Nat Prod, 2006).

The structures appear in SMILES notation. The source made the active and inactive calls. The rule behind the calls is not given here.

The subject of series [1] is Human immunodeficiency virus 1. The series can be described thus: Antiviral activity against HIV1 3B in H9 cells after 4 days by p24-antigen ELISA. The series is classed as functional, organism-based. The settings on record: for EC50: Human immunodeficiency virus 1, 3B, H9, 96 h. For orientation: In an ELISA, binding on a coated surface is turned into a signal by an enzyme label.

For a further series, the system named is H9. Kind of series: Cytotoxicity against human H9 cells after 4 days. It counts as cell-based. The settings on record: H9, 96 h.
Series [2] can be described thus: Therapeutic index, ratio of IC50 for human H9 cells to EC50 for HIV1 3B. The settings on record: read-out: Ratio IC50/EC50. The series is classed as cell-based.

The term EC50 denotes the concentration needed to bring the measured effect to its halfway point. High values mean weaker potency, low ones greater potency. Broadly, the IC50 is the midpoint of a concentration-inhibition curve. A lower IC50 goes with inhibition by little substance. Regarding `COc1cc2c(c(OC)c1OC)-c1c(cc3c(c1O)OCO3)C[C@H](C)[C@H](C)C2`, the EC50 in series [1] was 2.4 µM. Further, the concentration for half-maximal inhibition (IC50) in the series on H9 worked out at 47.1 µM. In series [2], the selectivity ratio was 19.4.

On to `COc1cc2c(c(O)c1OC)-c1c(cc3c(c1OC)OCO3)C[C@H](C)[C@H](C)C2` (racemic), for which the concentration for a half-maximal effect (EC50) in series [1] was under 0.65 µM. This compound displayed an IC50 with H9 of 44.5 µM. Moreover, in series [2], the selectivity ratio is over 68.

As to `C/C=C(/C)C(=O)O[C@@H]1c2cc(OC)c(OC)c(OC)c2-c2c(cc3c(c2OC)OCO3)C[C@H](C)[C@@]1(C)O` [ANGELOYLGOMISIN P], in series [1], the result was inactive. Besides, the concentration for half-maximal inhibition (IC50) in the series on H9 is over 49 µM.

For `COc1cc2c(c(OC)c1OC)-c1c(cc(OC)c(OC)c1OC)C[C@H](C)[C@@H](C)C2` [DEOXYSCHISANDRIN], in series [1], the result was inactive. In the series with H9, this compound showed an IC50 of over 60 µM.

The compound `COc1cc2c(c(O)c1OC)-c1c(cc(OC)c(OC)c1OC)C[C@@H](C)[C@@H](C)C2` [SCHISANHENOL] showed a half-maximal effective concentration (EC50) in series [1] of 5.7 µM. For the same compound, it took 42 µM to reach half-maximal inhibition in the series with H9 (IC50). Further, the selectivity ratio in series [2] came to 7.4.

Compound `C/C=C(/C)C(=O)O[C@H]1c2cc(OC)c(OC)c(OC)c2-c2c(cc3c(c2OC)OCO3)C[C@H](C)[C@]1(C)O` [SCHISANTHERIN B] registered an EC50 in series [1] of 40 µM. In the series with H9, this compound gave a half-inhibitory concentration (IC50) of over 49 µM. In series [2], the selectivity ratio came to 1.2.

`COc1cc2c(c(OC)c1OC)-c1c(cc(OC)c(OC)c1OC)C[C@](C)(O)[C@@H](C)C2` [SCHIZANDRIN]: the result in series [1] was inactive. Further, the IC50 in the series with H9 was over 58 µM.

`C/C=C(\C)C(=O)O[C@@H]1c2cc(OC)c(OC)c(OC)c2-c2c(cc3c(c2OC)OCO3)C[C@H](C)[C@@]1(C)O` [TIGLOYLGOMISIN P] showed an EC50 in series [1] of 37 µM. Further, in the series with H9, the 50% inhibitory concentration (IC50) was over 49 µM. The selectivity ratio in series [2] was found to be 1.3.

For `Cc1cn([C@H]2C[C@H](N=[N+]=[N-])[C@@H](CO)O2)c(=O)[nH]c1=O` [ZIDOVUDINE], the EC50 in series [1] amounted to 0.023 µM.
